From ChEMBL document CHEMBL5241130, “Integrating a phenotypic screening with a structural simplification strategy to identify 4-phenoxy-quinoline derivatives to potently disrupt the mitotic localization of Aurora kinase B” (Bioorg Med Chem, 2023)

Columns and labels:
Format in all cases: cell-based
[1] = molecular target: Aurora kinase B (Homo sapiens) (UniProt Q96GD4); experiment: Disruption of mitotic localization of AURKB in human RPE-MYC H2B-GFP cells assessed as proportion of polyploid cells in fully attached cell population at 40 uM measured after 72 hrs by fluorescence high content cell imaging analysis (Rvb <1%)
[2] = molecular target: Aurora kinase B (Homo sapiens) (UniProt Q96GD4); experiment: Disruption of mitotic localization of AURKB in human RPE-MYC H2B-GFP cells assessed as mitotic index at 40 uM measured after 6 hrs by fluorescence high content cell imaging analysis (reference value: 4.7+/-0.4%)
[3] = molecular target: T1, Aurora kinase A (Homo sapiens) (UniProt O14965); experiment: Inhibition of AURKA in human RPE-MYC H2B-GFP cells assessed as inhibition of autophosphorylation of AURKA at Thr288 residue by measuring residual enzyme activity at 20 uM measured after 6 hrs by immunofluorescence staining analysis (reference value: 100 +/-1%)
T1 sequence (whole entry): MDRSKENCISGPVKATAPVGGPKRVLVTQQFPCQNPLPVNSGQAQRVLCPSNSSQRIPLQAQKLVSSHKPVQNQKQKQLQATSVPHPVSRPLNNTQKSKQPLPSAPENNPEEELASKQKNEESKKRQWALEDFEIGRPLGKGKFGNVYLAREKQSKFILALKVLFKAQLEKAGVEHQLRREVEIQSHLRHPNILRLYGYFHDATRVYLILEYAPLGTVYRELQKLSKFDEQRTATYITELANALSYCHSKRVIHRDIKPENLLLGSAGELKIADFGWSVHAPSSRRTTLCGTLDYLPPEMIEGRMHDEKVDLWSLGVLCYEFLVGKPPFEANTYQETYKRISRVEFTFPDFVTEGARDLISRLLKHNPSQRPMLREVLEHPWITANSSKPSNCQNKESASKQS

[4] = molecular target: T1, Aurora kinase A (Homo sapiens); experiment: Inhibition of AURKA in human RPE-MYC H2B-GFP cells assessed as inhibition of autophosphorylation of AURKA at Thr288 residue by measuring residual enzyme activity at 10 uM measured after 6 hrs by immunofluorescence staining analysis (reference value: 100 +/-1%)
[5] = molecular target: Aurora kinase B (Homo sapiens) (UniProt Q96GD4); experiment: Inhibition of AURKB in human RPE-MYC H2B-GFP cells assessed as inhibition of histone H3 phosphorylation at Ser10 residue by measuring residual enzyme activity at 20 uM measured after 6 hrs by immunofluorescence staining analysis (reference value: 100 +/-9%)
[6] = molecular target: T1, Aurora kinase A (Homo sapiens); experiment: Inhibition of AURKA in human RPE-MYC H2B-GFP cells assessed as inhibition of autophosphorylation of AURKA at Thr288 residue by measuring residual enzyme activity at 40 uM measured after 6 hrs by immunofluorescence staining analysis (reference value: 100+/-1%)
[7] = molecular target: Aurora kinase B (Homo sapiens) (UniProt Q96GD4); experiment: Inhibition of AURKB in human RPE-MYC H2B-GFP cells assessed as inhibition of histone H3 phosphorylation at Ser10 residue by measuring residual enzyme activity at 10 uM measured after 6 hrs by immunofluorescence staining analysis (reference value: 100 +/-9%)
[8] = molecular target: Aurora kinase B (Homo sapiens) (UniProt Q96GD4); experiment: Inhibition of AURKB in human RPE-MYC H2B-GFP cells assessed as inhibition of histone H3 phosphorylation at Ser10 residue by measuring residual enzyme activity at 40 uM measured after 6 hrs by immunofluorescence staining analysis (reference value: 100 +/-9%)
[9] = molecular target: Aurora kinase B (Homo sapiens) (UniProt Q96GD4); experiment: Disruption of mitotic localization of AURKB in human RPE-MYC H2B-GFP cells assessed as mitotic index at 20 uM measured after 6 hrs by fluorescence high content cell imaging analysis (reference value: 4.7+/-0.4%)
[10] = molecular target: Aurora kinase B (Homo sapiens) (UniProt Q96GD4); experiment: Disruption of mitotic localization of AURKB in human RPE-MYC H2B-GFP cells assessed as mitotic index at 10 uM measured after 6 hrs by fluorescence high content cell imaging analysis (reference value: 4.7+/-0.4%)
[11] = molecular target: Aurora kinase B (Homo sapiens) (UniProt Q96GD4); experiment: Disruption of mitotic localization of AURKB in human RPE-MYC H2B-GFP cells assessed as induction of polyploidy by fluorescence high content cell imaging analysis
[12] = molecular target: Aurora kinase B (Homo sapiens) (UniProt Q96GD4); experiment: Disruption of mitotic localization of AURKB in human RPE-MYC H2B-GFP cells assessed as proportion of polyploid cells in fully attached cell population at 20 uM measured after 72 hrs by fluorescence high content cell imaging analysis (Rvb <1%)
[13] = molecular target: Aurora kinase B (Homo sapiens) (UniProt Q96GD4); experiment: Disruption of mitotic localization of AURKB in human RPE-MYC H2B-GFP cells assessed as proportion of polyploid cells in fully attached cell population at 10 uM measured after 72 hrs by fluorescence high content cell imaging analysis (Rvb <1%)
[14] = molecular target: Aurora kinase B (Homo sapiens) (UniProt Q96GD4); experiment: Disruption of mitotic localization of AURKB in human RPE-MYC H2B-GFP cells assessed as induction of mitotic arrest measured after 24 hrs by fluorescence high content cell imaging analysis

Chain of Aurora kinase B (Homo sapiens) (Q96GD4 whole entry): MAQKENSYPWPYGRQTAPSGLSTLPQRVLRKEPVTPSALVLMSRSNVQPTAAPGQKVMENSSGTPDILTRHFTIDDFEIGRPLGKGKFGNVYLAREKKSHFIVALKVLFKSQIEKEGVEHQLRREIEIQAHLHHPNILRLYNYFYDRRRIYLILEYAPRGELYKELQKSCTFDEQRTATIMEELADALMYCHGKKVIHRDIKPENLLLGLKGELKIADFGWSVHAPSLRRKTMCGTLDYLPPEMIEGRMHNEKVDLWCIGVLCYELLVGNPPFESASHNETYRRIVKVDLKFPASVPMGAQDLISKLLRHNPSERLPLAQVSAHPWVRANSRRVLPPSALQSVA

Activity [1]: 100% | Activity [2]: 15.6% | Activity [3]: 109% | Activity [4]: 106% | Activity [5]: 102% | Activity [6]: 115% | Activity [7]: 104% | Activity [8]: 105% | Activity [9]: 16.2% | Activity [10]: 15.6% | MEC [11]: 10 µM | Activity [12]: 100% | Activity [13]: 100% | MEC [14]: 10 µM
Compound: Nc1ccc(Oc2ccnc3ccccc23)cc1
